The values that follow come from patent US5637584A, “Solvate of olanzapine” (Eli Lilly and Company, priority 1995, dated 1997).

Data set [1] can be described thus: detection of radiolabelled compound in saliva. The format is in vivo. As to the method: The anhydrous Form I 2-methyl-4-(4-methyl-1-piperazinyl)-10H-thieno-[2,3-b][1,5]benzodiazepine compound is effective over a wide dosage range, the actual dose administered being dependent on the condition being treated. For example, in the treatment of adult humans, dosages of from 0.25 to 30 mg, preferably from 1 to 20 mg, per day may be used. A once a day dosage is normally sufficient, although divided doses may be administered. For treatment of central nervous system disorders, a dose range of from 1 to 30 mg, preferably 2.5 to 20 mg per day is suitable.

A short description of data set [2]: stability of the anhydrous polymorph. As to conditions: suitability for pharmaceutical formulations. The format is physicochemical.
Data set [3] deals with conditioned avoidance response. The data set can be described thus: conditioned avoidance response in rats. Format: in vivo.
Data set [4] has as its system apomorphine-induced climbing behavior. The data set can be described thus: apomorphine-induced climbing behavior in mice. Format: in vivo. An excerpt:
(§1) The Form I olanzapine prepared by the process of this invention has useful central nervous system activity. […] For example, the anhydrous Form I compound has been assessed in a number of standard behavior tests predictive of antipsychotic activity. The claimed compound antagonised apomorphine-induced climbing behavior and hypothermia in mice. See Moore, N. A. et al Psychopharmacology 94 (2), 263-266 (1988).

In data set [5] the test system is apomorphine-induced hypothermia. The data set can be described thus: apomorphine-induced hypothermia in mice. The format is in vivo.
Excerpt: as §1

A further data set concerns catalepsy. Description: induction of catalepsy. The format is in vivo. As to conditions: compared with doses required to block conditioned avoidance response.
The next data set deals with 5-HT2B receptor. The data set can be described thus: 5-HT2B receptor activity.

Take `Cc1cc2c(s1)Nc1ccccc1N=C2N1CCN(C)CC1` [2-methyl-4-(4-methyl-1-piperazinyl)-10H-thieno-[2,3b][1,5]benzodiazepine]: the detection in saliva result in data set [1] was “can be detected in the saliva”.

Consider `Cc1cc2c(s1)Nc1ccccc1N=C2N1CCN(C)CC1` [anhydrous Form II 2-methyl-4-(4-methyl-1-piperazinyl)-10H-th] [2-methyl-4-(4-methyl-1-piperazinyl)-10H-thieno[2,3-b][1,5]benzodiazepine], for which the “stability of crystal form” value in data set [2] was “metastable”.

Consider `Cc1cc2c(s1)Nc1ccccc1N=C2N1CCN(C)CC1` [anhydrous Form I olanzapine, 2-methyl-4-(4-methyl-1-piperazinyl)-10H-thieno[2,3-b][1,5]benzodiazepine], for which the “inhibition of conditioned avoidance response” value in data set [3] is “inhibits”. Moreover, the “antagonism of apomorphine-induced climbing behavior” value in data set [4] is “antagonised”. Moreover, the “antagonism of apomorphine-induced hypothermia” value in data set [5] was “antagonised”. Further, the induction of catalepsy entry in the data set with catalepsy is reported as “induces cataleptsy only at higher doses”. In addition, the “stability of crystal form” value in data set [2] is reported as “stable”. For the same compound, the 5-HT2B receptor activity with 5-HT2B receptor was 5-HT2B receptor activity.
